Reference: PubChem BioAssay (NCI)
Values joined by “and” are separate entries in the source; they are usually repeats but may differ in a detail not shown here. Equal values may be shown once.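 Following 48 hours of exposure in 96-well plates, responses at five concentrations were used to interpolate endpoints linearly. The concentration for 50% growth inhibition is given as GI50. At the TGI there is no net growth.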

Legend:
Assay in all cases: NCI-60 cell line screen, 48 h
HCT-116 colon = test system: HCT-116 colon
OVCAR-5 ovarian = test system: OVCAR-5 ovarian
SW-620 colon = test system: SW-620 colon
HOP-62 NSCLC = test system: HOP-62 NSCLC
IGROV1 ovarian = test system: IGROV1 ovarian
SNB-19 CNS = test system: SNB-19 CNS
NCI-H460 lung = test system: NCI-H460 lung
786-0 renal = test system: 786-0 renal
EKVX NSCLC = test system: EKVX NSCLC
MDA-MB-435 = test system: MDA-MB-435

Structure (SMILES): COc1cc(/C=C/C(=O)CC(=O)/C=C/c2cc(OC)c(O)c(OC)c2)cc(OC)c1O
- GI50 (HCT-116 colon): 17.2 µM
- TGI (HCT-116 colon): 13.3 µM and > 100 µM
- GI50 (OVCAR-5 ovarian): 27.1 µM
- TGI (OVCAR-5 ovarian): 25 µM and 83.5 µM
- TGI (SW-620 colon): > 100 µM
- GI50 (HOP-62 NSCLC): 19.6 µM
- TGI (HOP-62 NSCLC): 25 µM and > 100 µM
- GI50 (IGROV1 ovarian): 11 µM
- TGI (IGROV1 ovarian): 10.8 µM and 32.2 µM
- TGI (SNB-19 CNS): 25 µM and > 100 µM
- TGI (NCI-H460 lung): > 100 µM
- GI50 (786-0 renal): 38.6 µM
- TGI (786-0 renal): 25 µM and > 100 µM
- GI50 (EKVX NSCLC): 18.7 µM
- TGI (EKVX NSCLC): 25 µM and 71.2 µM
- TGI (MDA-MB-435): 16.3 µM and 24 µM

Structure (SMILES): COc1ccc(CSC2=C(C#N)C(=O)NC3(CCCCC3)S2)cc1
- TGI (HCT-116 colon): > 100 µM
- TGI (OVCAR-5 ovarian): > 100 µM
- TGI (SW-620 colon): > 100 µM
- TGI (HOP-62 NSCLC): > 100 µM
- TGI (IGROV1 ovarian): > 100 µM
- TGI (SNB-19 CNS): > 100 µM
- TGI (NCI-H460 lung): > 100 µM
- TGI (786-0 renal): > 100 µM
- TGI (EKVX NSCLC): > 100 µM
- TGI (MDA-MB-435): 38.2 µM

Structure (SMILES): COc1ccc(C2NN=C3c4ccccc4CCC32)cc1 (stereo not drawn)
- GI50 (HCT-116 colon): 6.85 µM
- TGI (HCT-116 colon): 30.2 µM
- GI50 (OVCAR-5 ovarian): 18.4 µM
- TGI (OVCAR-5 ovarian): > 100 µM
- GI50 (SW-620 colon): 9.19 µM
- TGI (SW-620 colon): > 100 µM
- GI50 (HOP-62 NSCLC): 95.3 µM
- TGI (HOP-62 NSCLC): > 100 µM
- GI50 (IGROV1 ovarian): 2.7 µM
- TGI (IGROV1 ovarian): 21.4 µM
- GI50 (SNB-19 CNS): 14.5 µM
- TGI (SNB-19 CNS): > 100 µM
- GI50 (NCI-H460 lung): 4.86 µM
- TGI (NCI-H460 lung): 71.3 µM
- GI50 (786-0 renal): 53.1 µM
- TGI (786-0 renal): > 100 µM
- GI50 (EKVX NSCLC): 1.4 µM
- TGI (EKVX NSCLC): 29.3 µM
- GI50 (MDA-MB-435): 1.57 µM
- TGI (MDA-MB-435): 3.62 µM

Structure (SMILES): C=C(C(=O)OC)[C@@H]1CC2OC1C(=O)C(C)CCC/C(C)=C/CC[C@@]2(C)O (stereo partly drawn)
- GI50 (HCT-116 colon): 13.4 µM
- TGI (HCT-116 colon): 26.2 µM
- GI50 (OVCAR-5 ovarian): 76.7 µM
- TGI (OVCAR-5 ovarian): > 100 µM
- GI50 (SW-620 colon): 15 µM
- TGI (SW-620 colon): 30.1 µM
- GI50 (HOP-62 NSCLC): 20.6 µM
- TGI (HOP-62 NSCLC): 41.2 µM
- GI50 (IGROV1 ovarian): 11.3 µM
- TGI (IGROV1 ovarian): 25.4 µM
- GI50 (SNB-19 CNS): > 100 µM
- TGI (SNB-19 CNS): > 100 µM
- GI50 (NCI-H460 lung): 50.5 µM
- TGI (NCI-H460 lung): > 100 µM
- GI50 (786-0 renal): 15.2 µM
- TGI (786-0 renal): 31.5 µM
- GI50 (EKVX NSCLC): 63.2 µM
- TGI (EKVX NSCLC): > 100 µM
- GI50 (MDA-MB-435): 25.9 µM
- TGI (MDA-MB-435): 79.4 µM

Structure (SMILES): COc1ccc2nc(C)cc(Sc3nc4ccccc4s3)c2c1
- GI50 (HCT-116 colon): 1.14 µM
- TGI (HCT-116 colon): 3.15 µM
- GI50 (OVCAR-5 ovarian): 1.79 µM
- TGI (OVCAR-5 ovarian): 8.19 µM
- GI50 (SW-620 colon): 1.51 µM
- TGI (SW-620 colon): 2.98 µM
- GI50 (HOP-62 NSCLC): 1.26 µM
- TGI (HOP-62 NSCLC): 6.06 µM
- GI50 (IGROV1 ovarian): 2.2 µM
- TGI (IGROV1 ovarian): 13.9 µM
- GI50 (SNB-19 CNS): 3.46 µM
- TGI (SNB-19 CNS): 28.8 µM
- GI50 (NCI-H460 lung): 1.89 µM
- TGI (NCI-H460 lung): 5.35 µM
- GI50 (786-0 renal): 0.562 µM
- TGI (786-0 renal): 3.28 µM
- GI50 (EKVX NSCLC): 1.61 µM
- TGI (EKVX NSCLC): 8 µM
- GI50 (MDA-MB-435): 1.76 µM
- TGI (MDA-MB-435): 5.39 µM

Structure (SMILES): CN1CCN(C(=O)c2ccc(NC(=O)Nc3ccc(-c4nc(N5CCOCC5)c5cccn5n4)cc3)cc2)CC1
- GI50 (HCT-116 colon): 0.0507 µM
- TGI (HCT-116 colon): 15.2 µM
- GI50 (OVCAR-5 ovarian): 0.0439 µM
- TGI (OVCAR-5 ovarian): 12.8 µM
- GI50 (SW-620 colon): 0.0634 µM
- TGI (SW-620 colon): 12.1 µM
- GI50 (HOP-62 NSCLC): 0.025 µM
- TGI (HOP-62 NSCLC): 0.232 µM
- GI50 (IGROV1 ovarian): 0.0255 µM
- TGI (IGROV1 ovarian): 1.2 µM
- GI50 (SNB-19 CNS): 0.0363 µM
- TGI (SNB-19 CNS): 11.1 µM
- GI50 (NCI-H460 lung): 0.0498 µM
- TGI (NCI-H460 lung): 12 µM
- GI50 (786-0 renal): 0.0632 µM
- TGI (786-0 renal): 1.11 µM
- GI50 (EKVX NSCLC): 0.042 µM
- TGI (EKVX NSCLC): 0.703 µM
- GI50 (MDA-MB-435): 0.032 µM
- TGI (MDA-MB-435): 0.41 µM

Structure (SMILES): COc1cc(C)cc(C(=O)/C=C/c2ccccc2)c1O
- TGI (HCT-116 colon): 34.9 µM
- TGI (OVCAR-5 ovarian): 34.9 µM
- TGI (SW-620 colon): 52.3 µM
- TGI (HOP-62 NSCLC): 40.3 µM
- TGI (IGROV1 ovarian): 30.5 µM
- TGI (SNB-19 CNS): 38.5 µM
- TGI (NCI-H460 lung): 44.7 µM
- TGI (786-0 renal): 37.3 µM
- TGI (EKVX NSCLC): 47.8 µM
- TGI (MDA-MB-435): 83.6 µM

Structure (SMILES): CC1=C(CO)C(=O)O[C@@H]([C@@H](C)[C@H]2CC[C@H]3[C@@H]4C[C@H]5O[C@]56[C@@H](O)C=CC(=O)[C@]6(C)[C@H]4CC[C@]23C)C1
- TGI (HCT-116 colon): 0.538 µM
- TGI (OVCAR-5 ovarian): 2.64 µM
- TGI (SW-620 colon): 0.603 µM
- TGI (HOP-62 NSCLC): 2.48 µM
- TGI (IGROV1 ovarian): 0.544 µM
- TGI (SNB-19 CNS): 6.07 µM
- TGI (NCI-H460 lung): 5.11 µM
- TGI (786-0 renal): 1.73 µM
- GI50 (EKVX NSCLC): 0.434 µM
- TGI (EKVX NSCLC): 1.45 µM
- GI50 (MDA-MB-435): 0.252 µM
- TGI (MDA-MB-435): 0.976 µM

Structure (SMILES): O=C1NC(=O)C(c2cccc(Cl)c2)=C1Nc1ccc(Cl)c(C(=O)O)c1
- GI50 (HCT-116 colon): > 25 µM
- TGI (HCT-116 colon): > 25 µM
- GI50 (OVCAR-5 ovarian): > 25 µM
- TGI (OVCAR-5 ovarian): > 25 µM
- GI50 (SW-620 colon): > 25 µM
- TGI (SW-620 colon): > 25 µM
- GI50 (HOP-62 NSCLC): > 25 µM
- TGI (HOP-62 NSCLC): > 25 µM
- GI50 (IGROV1 ovarian): > 25 µM
- TGI (IGROV1 ovarian): > 25 µM
- GI50 (SNB-19 CNS): > 25 µM
- TGI (SNB-19 CNS): > 25 µM
- GI50 (NCI-H460 lung): > 25 µM
- TGI (NCI-H460 lung): > 25 µM
- GI50 (786-0 renal): > 25 µM
- TGI (786-0 renal): > 25 µM
- GI50 (EKVX NSCLC): > 25 µM
- TGI (EKVX NSCLC): > 25 µM
- GI50 (MDA-MB-435): > 25 µM
- TGI (MDA-MB-435): > 25 µM

Structure (SMILES): CCCCC#Cc1c(I)n(C2OC(CO[Si](C)(C)C(C)(C)C)C3OC(C)(C)OC32)c(=O)n(C(=O)c2ccccc2)c1=O (stereo not drawn)
- GI50 (HCT-116 colon): 1.36 µM
- TGI (HCT-116 colon): 2.74 µM
- GI50 (OVCAR-5 ovarian): 17.1 µM
- TGI (OVCAR-5 ovarian): 31.7 µM
- GI50 (SW-620 colon): 2.33 µM
- TGI (SW-620 colon): 6.03 µM
- GI50 (HOP-62 NSCLC): 10.7 µM
- TGI (HOP-62 NSCLC): 23 µM
- GI50 (IGROV1 ovarian): 3.96 µM
- TGI (IGROV1 ovarian): 13.4 µM
- GI50 (SNB-19 CNS): 14.1 µM
- TGI (SNB-19 CNS): 28.4 µM
- GI50 (NCI-H460 lung): 10.9 µM
- TGI (NCI-H460 lung): 27.4 µM
- GI50 (786-0 renal): 3.25 µM
- TGI (786-0 renal): 14.5 µM
- GI50 (EKVX NSCLC): 18.5 µM
- TGI (EKVX NSCLC): 38.9 µM
- GI50 (MDA-MB-435): 1.77 µM
- TGI (MDA-MB-435): 3.87 µM

Structure (SMILES): OCCCCC#Cc1ccccc1C#Cc1cccnc1
- GI50 (HCT-116 colon): 45.9 µM
- TGI (HCT-116 colon): > 100 µM
- GI50 (OVCAR-5 ovarian): 27.5 µM
- TGI (OVCAR-5 ovarian): > 100 µM
- GI50 (SW-620 colon): 45.2 µM
- TGI (SW-620 colon): > 100 µM
- GI50 (HOP-62 NSCLC): 20 µM
- TGI (HOP-62 NSCLC): 57.4 µM
- GI50 (IGROV1 ovarian): 20.3 µM
- TGI (IGROV1 ovarian): 52 µM
- GI50 (SNB-19 CNS): 49.3 µM
- TGI (SNB-19 CNS): > 100 µM
- GI50 (NCI-H460 lung): 31.6 µM
- TGI (NCI-H460 lung): > 100 µM
- GI50 (786-0 renal): 20.2 µM
- TGI (786-0 renal): 58.3 µM
- GI50 (EKVX NSCLC): 41.7 µM
- TGI (EKVX NSCLC): > 100 µM
- GI50 (MDA-MB-435): 32.2 µM
- TGI (MDA-MB-435): > 100 µM

Structure (SMILES): CCN1CCN(c2cc(C(=O)Nc3cccc(Nc4ccc5c(OC)cccc5n4)c3)cc(C(F)(F)F)c2)CC1
- GI50 (HCT-116 colon): 0.872 µM
- TGI (HCT-116 colon): 3.54 µM
- GI50 (OVCAR-5 ovarian): 2.78 µM
- TGI (OVCAR-5 ovarian): 7.84 µM
- GI50 (SW-620 colon): 3.67 µM
- TGI (SW-620 colon): 8.77 µM
- GI50 (HOP-62 NSCLC): 1.02 µM
- TGI (HOP-62 NSCLC): 4.04 µM
- GI50 (IGROV1 ovarian): 0.924 µM
- TGI (IGROV1 ovarian): 5.23 µM
- GI50 (SNB-19 CNS): 2.1 µM
- TGI (SNB-19 CNS): 7.01 µM
- GI50 (NCI-H460 lung): 1.34 µM
- TGI (NCI-H460 lung): 5.32 µM
- GI50 (786-0 renal): 3.73 µM
- TGI (786-0 renal): 7.84 µM
- GI50 (EKVX NSCLC): 3.07 µM
- TGI (EKVX NSCLC): 9.46 µM
- GI50 (MDA-MB-435): 1.16 µM
- TGI (MDA-MB-435): 4.93 µM
